Results: US12617831B2 (UNIVERSITE D'ANGERS, priority 2019, dated 2026)
Ends that are not written are not given here.

Legend:
[1] = tested on: Murine Raw 264.7 cells; type: cell-based; conditions: for Emax, maximum inhibitory effect on osteoclastogenesis: Raw 264.7, * data obtained in previous experiments; for Cl at EC50 of GIP and GLP-2 (combination index for osteoclastogenesis): at 36.8 pM, Chou & Talalay; for Interpretation of combination index for osteoclastogenesis: at EC50 of GIP and GLP-2, 36.8 pM; for IC50 computed from curve fitting of osteoclastogenesis vs. peptide concentration: Raw 264.7, RANKL 10 ng/ml, 110 h, * values determined from previous experiments
Experimental: Murine Raw 264.7 cells were grown and expanded in propagation medium containing Dulbecco's modified Eagle medium (DMEM-Gibco) supplemented with 10% fetal bovine serum (FBS-Lonza), 100 U/mL penicillin and 100 μg/mL streptomycin (Gibco) in a humidified atmosphere enriched with 5% CO2 at 37° C. The first passage after thawing Raw 264.7 cells was considered as passage 1. Cells were used up to passage 8. […] Cultures were rinsed three times in distilled water and the residual activity was inhibited by 4% NaF (Sigma-Aldrich) for 30 min. Cells were then rinsed in distilled water and allowed to dry. TRAcP positive cells, with more than three nuclei, were identified as osteoclasts. The number of newly generated osteoclasts was assessed using light microscopic examination by a histologist that was blinded to the treatment intervention. […] For each concentration of peptide, the mean, SD and number of events were computed.

[2] = tested on: MC3T3-E1 subclone 4 cells; type: cell-based, murine; conditions: for Interpretation of combination index on collagen maturity at EC50: 69 pM; for Interpretation of combination index on collagen maturity at EC50 / Interpretation of combination index on collagen maturity at […] EC50: t-test vs additivity 1.0±0.15; for Interpretation of combination index on collagen maturity at […] EC50: 100 pM; for Emax for dose-effect curves on collagen maturity: MC3T3-E1, day 14; for effect on collagen maturity index: MC3T3-E1, vs cultures without peptide (FIG. 20); for Cl at […] EC50 (combination index on collagen maturity): at […] mean EC50 of GIP and GLP-2, 100 pM; for Cl at […] EC50 (combination index on collagen maturity) / Cl at EC50 (combination index on collagen maturity): Chou & Talalay, mean ± SD; for Cl at EC50 (combination index on collagen maturity): at mean EC50 of GIP and GLP-2, 69 pM
Experimental: Briefly, MC3T3-E1 subclone 4 cells have been grown and propagated in α-MEM supplemented with 5% fetal bovine serum (FBS), 5% bovine calf serum (BCS), 100 U/mL penicillin, and 100 μg/mL streptomycin in a humidified atmosphere enriched with 5% CO2 at 37° C. […] This day was considered as day 1. The differentiation medium was replenished every two days. […] Cultures were rinsed at least six times with milliQ water, fixed in absolute ethanol, scrapped off the culture dish and transferred onto BaF2 windows where they were air-dried. Integrity of the collagen extracellular matrix was verified by comparing the obtained Fourier transform infrared spectrum with those of commercial collagen. Spectral analysis was performed using a Bruker Vertex 70 spectrometer (Bruker optics, Ettlingen, Germany) interfaced with a Bruker Hyperion 3000 infrared microscope equipped with a standard single element Mercury Cadmium Telluride (MCT) detector. Calibration of the infrared spectrometer is done once a week with a polystyrene film standard (Bruker optics). Infrared spectra were recorded at a resolution of 4 cm^-1, with an average of 32 scans in transmission mode. Background spectral images were collected under identical conditions from the same BaF2 windows at the beginning and end of each experiment to ensure instrument stability. At least 5 spectra were acquired for each condition and analyzed with a lab-made routine script (version 2.0) in Matlab R2016b (The Mathworks, Natick, MA). […] For GIP and GLP-2 dataset, the inventors used the collagen maturity data previously acquired and analyzed. First of all, collagen maturity obtained in control cultures, i.e. in the absence of double GIP/GLP-2 analogues, were averaged and subtracted to the all dataset. […] For each concentration of peptide, the mean, SD and number of events were computed. […] The GraphPad Prism analysis consisted in: […] Statistical Analysis […] Data are represented as mean±SD.

[3] = tested on: Murine MC3T3-E1 cells; test: Collagen maturity assay in MC3T3-E1 cultures (Example 2); type: cell-based; conditions: MC3T3-E1 cultures (FIGS. 5-7)
Experimental: At confluence, the propagation medium was replaced by the differentiation medium containing αMEM supplemented with 5% FBS, 5% bovine calf serum, 100 U/mL penicillin, 100 μg/mL streptomycin, 50 μg/ml ascorbic acid and various concentrations of analogues. This day was considered as day 1. The differentiation medium was replenished every two days. […] Cultures were rinsed at least six times with milliQ water, fixed in absolute ethanol, scrapped off the culture dish and transferred onto BaF2 windows where they were air-dried. Integrity of the collagen extracellular matrix was verified by comparing the obtained Fourier transform infrared spectrum with those of commercial collagen. Spectral analysis was performed using a Bruker Vertex 70 spectrometer (Bruker optics, Ettlingen, Germany) interfaced with a Bruker Hyperion 3000 infrared microscope equipped with a standard single element Mercury Cadmium Telluride (MCT) detector. Infrared spectra were recorded at a resolution of 4 cm^−1, with an average of 32 scans in transmission mode. Background spectral images were collected under identical conditions from the same BaF2 windows at the beginning and end of each experiment to ensure instrument stability. At least 20 spectra were acquired for each condition and analyzed with a lab-made routine script in Matlab R2016b (The Mathworks, Natick, MA).

| Compound | Emax, maximum inhibitory effect on osteoclastogenesis [1] [%] | Cl at EC50 of GIP and GLP-2 (combination index for osteoclastogenesis) [1] | Interpretation of combination index for osteoclastogenesis [1] | EC50 [2] [pM] | Interpretation of combination index on collagen maturity at EC50 [2] | Interpretation of combination index on collagen maturity at […] EC50 [2] | Emax for dose-effect curves on collagen maturity [2] [%] | effect on collagen maturity index [2] | Cl at […] EC50 (combination index on collagen maturity) [2] | Cl at EC50 (combination index on collagen maturity) [2] | profile of collagen maturity versus concentration [3] | EC50 [1] [pM] | IC50 computed from curve fitting of osteoclastogenesis vs. peptide concentration [1] [pM] |
| --- | --- | --- | --- | --- | --- | --- | --- | --- | --- | --- | --- | --- | --- |
| CC[C@H](C)[C@H](NC(=O)[C@H](Cc1ccccc1)NC(=O)[C@H](CC(=O)O)NC(=O)[C@H](CCCNC(=N)N)NC(=O)[C@H](C)NC(=O)[C@H](C)NC(=O)[C@H](CC(C)C)NC(=O)[C@H](CC(N)=O)NC(=O)[C@H](CC(=O)O)NC(=O)[C@H](CC(C)C)NC(=O)[C@@H](NC(=O)[C@@H](NC(=O)[C@H](CO)NC(=O)[C@H](Cc1ccc(O)cc1)NC(=O)[C@H](CC(=O)O)NC(=O)[C@H](CO)NC(=O)[C@@H](NC(=O)[C@H](Cc1ccccc1)NC(=O)[C@@H](NC(=O)CNC(=O)[C@H](CC(=O)O)NC(=O)[C@H](C)NC(=O)[C@@H](N)Cc1c[nH]cn1)[C@@H](C)O)[C@@H](C)CC)[C@@H](C)O)[C@@H](C)CC)C(=O)N[C@@H](CC(N)=O)C(=O)N[C@@H](Cc1c[nH]c2ccccc12)C(=O)N[C@@H](CC(C)C)C(=O)N[C@H](C(=O)N[C@@H](CCC(N)=O)C(=O)N[C@H](C(=O)N[C@@H](CCCCN)C(=O)N[C@H](C(=O)N[C@H](C(=O)N[C@@H](CC(=O)O)C(N)=O)[C@@H](C)O)[C@@H](C)CC)[C@@H](C)O)[C@@H](C)CC [Co-3] | 37.88 | 48.00 | Very strong antagonism (CI>10: very strong antagonism) | 19.4 | Additive (CI 0.85-1.15: additive) | Additive (CI 0.85-1.15: additive) | 121.8 | very modest | 1.79 ± 2.20 | 1.29 ± 1.65 |  |  |  |
| CSCC[C@H](NC(=O)[C@H](CC(=O)O)NC(=O)[C@H](CO)NC(=O)[C@@H](NC(=O)[C@H](Cc1ccccc1)NC(=O)[C@H](CO)NC(=O)CNC(=O)[C@H](CCC(=O)O)NC(=O)CNC(=O)[C@@H](N)Cc1c[nH]cn1)C(C)C)C(=O)N[C@@H](CO)C(=O)N[C@H](C(=O)N[C@H](C(=O)N[C@@H](CC(C)C)C(=O)N[C@@H](CC(=O)O)C(=O)N[C@@H](CCCCN)C(=O)N[C@@H](CC(C)C)C(=O)N[C@@H](C)C(=O)N[C@@H](C)C(=O)N[C@@H](CCCNC(=N)N)C(=O)N[C@@H](CC(=O)O)C(=O)N[C@@H](Cc1ccccc1)C(=O)N[C@H](C(=O)N[C@@H](CC(N)=O)C(=O)N[C@@H](Cc1c[nH]c2ccccc12)C(=O)N[C@@H](CC(C)C)C(=O)N[C@@H](CC(C)C)C(=O)N[C@@H](CCC(N)=O)C(=O)N[C@H](C(=O)N[C@@H](CCCCN)C(N)=O)[C@@H](C)O)C(C)C)C(C)C)C(C)C [GL-0004] |  |  |  |  |  |  |  |  |  |  | biphasic profile |  |  |
| HAEGTFISDYSIAMDKLAARDFINWLIQTKITD-NH2 (C-terminus assumed) [Co-7] | 58.05 | 271.28 | Very strong antagonism (CI>10: very strong antagonism) | 8.6 ± 6.9 | Additive (CI 0.85-1.15: additive) | Antagonism (CI 1.45-3.3: antagonism) | 115.6 | very modest | 2.30 ± 1.01 | 1.53 ± 1.10 |  | 1480 | 1480 |
| CC[C@H](C)[C@H](NC(=O)[C@H](Cc1ccccc1)NC(=O)[C@H](CC(=O)O)NC(=O)[C@H](CCCNC(=N)N)NC(=O)[C@H](C)NC(=O)[C@H](C)NC(=O)[C@H](CC(C)C)NC(=O)[C@H](CC(N)=O)NC(=O)[C@H](CC(=O)O)NC(=O)[C@H](CC(C)C)NC(=O)[C@@H](NC(=O)[C@@H](NC(=O)[C@H](CO)NC(=O)[C@H](Cc1ccc(O)cc1)NC(=O)[C@H](CC(=O)O)NC(=O)[C@H](CO)NC(=O)[C@@H](NC(=O)[C@H](Cc1ccccc1)NC(=O)[C@@H](NC(=O)CNC(=O)[C@H](CC(=O)O)NC(=O)[C@H](C)NC(=O)[C@@H](N)Cc1c[nH]cn1)[C@@H](C)O)[C@@H](C)CC)[C@@H](C)O)[C@@H](C)CC)C(=O)N[C@@H](CC(N)=O)C(=O)N[C@@H](Cc1c[nH]c2ccccc12)C(=O)N[C@@H](CC(C)C)C(=O)N[C@H](C(=O)N[C@@H](CCC(N)=O)C(=O)N[C@H](C(=O)N[C@@H](CCCCN)C(=O)NCC(=O)N[C@@H](CCCCN)C(=O)N[C@@H](CCCCN)C(N)=O)[C@@H](C)O)[C@@H](C)CC [Co-19] | 62.36 | 1.94 | Antagonism (CI 1.45-3.3: antagonism) | 22.9 | Additive (CI 0.85-1.15: additive) | Additive (CI 0.85-1.15: additive) | 118.1 | very modest | 389.0 ± 864 | 277.7 ± 617.4 |  | 32.4 | 32.4 |
| CC[C@H](C)[C@H](NC(=O)[C@H](CO)NC(=O)[C@H](CCSC)NC(=O)[C@H](CC(=O)O)NC(=O)[C@H](CO)NC(=O)CNC(=O)[C@H](Cc1ccccc1)NC(=O)[C@H](CO)NC(=O)CNC(=O)[C@H](CCC(=O)O)NC(=O)CNC(=O)[C@@H](N)Cc1c[nH]cn1)C(=O)N[C@@H](C)C(=O)N[C@@H](CC(C)C)C(=O)N[C@@H](CC(=O)O)C(=O)N[C@@H](CCCCN)C(=O)N[C@@H](CC(C)C)C(=O)N[C@@H](C)C(=O)N[C@@H](C)C(=O)N[C@@H](CCCNC(=N)N)C(=O)N[C@@H](CC(=O)O)C(=O)N[C@@H](Cc1ccccc1)C(=O)N[C@H](C(=O)N[C@@H](CC(N)=O)C(=O)N[C@@H](Cc1c[nH]c2ccccc12)C(=O)N[C@@H](CC(C)C)C(=O)N[C@@H](CC(C)C)C(=O)N[C@@H](CCC(N)=O)C(=O)N[C@H](C(=O)N[C@@H](CCCCN)C(=O)N[C@H](C(=O)N[C@H](C(=O)N[C@@H](CC(=O)O)C(=O)NCC(=O)N[C@@H](C)C(=O)N[C@@H](C)C(=O)N[C@@H](CC(=O)O)C(=O)N[C@@H](CC(=O)O)C(=O)N[C@@H](CC(=O)O)C(=O)N[C@@H](CC(=O)O)C(=O)N[C@@H](CC(=O)O)C(=O)N[C@@H](CC(=O)O)C(N)=O)[C@@H](C)O)[C@@H](C)CC)[C@@H](C)O)C(C)C [GL-0001-Tag] |  |  |  |  |  |  |  |  |  |  | biphasic profile |  |  |
| CC[C@H](C)[C@H](NC(=O)[C@H](CO)NC(=O)[C@H](CCSC)NC(=O)[C@H](CC(=O)O)NC(=O)[C@H](CO)NC(=O)[C@@H](NC(=O)[C@H](Cc1ccccc1)NC(=O)[C@H](CO)NC(=O)CNC(=O)[C@H](CCC(=O)O)NC(=O)CNC(=O)[C@@H](N)Cc1c[nH]cn1)C(C)C)C(=O)N[C@H](C(=O)N[C@@H](CC(C)C)C(=O)N[C@@H](CC(=O)O)C(=O)N[C@@H](CCCCN)C(=O)N[C@@H](CC(C)C)C(=O)N[C@@H](C)C(=O)N[C@@H](C)C(=O)N[C@@H](CCCNC(=N)N)C(=O)N[C@@H](CC(=O)O)C(=O)N[C@@H](Cc1ccccc1)C(=O)N[C@H](C(=O)N[C@@H](CC(N)=O)C(=O)N[C@@H](Cc1c[nH]c2ccccc12)C(=O)N[C@@H](CC(C)C)C(=O)N[C@@H](CC(C)C)C(=O)N[C@@H](CCC(N)=O)C(=O)N[C@H](C(=O)N[C@@H](CCCCN)C(N)=O)[C@@H](C)O)C(C)C)C(C)C [GL-0002] |  |  |  |  |  |  |  |  |  |  | biphasic profile |  |  |
